Results: patent US20150315218A1, “SALTS OF PRODRUGS OF PIPERAZINE AND SUBSTITUTED PIPERIDINE ANTIVIRAL AGENTS” (Bristol-Myers Squibb Company, priority 2004, published 2015)
Several values for one entry are separate records, joined by “and”; a condition that tells them apart may be missing. Equal values may be shown once. Where a name gives a salt, the structure may show the parent alone. One block for each compound: values may come before it.

Columns and labels:
[1] = IV and PO pharmacokinetic studies of prodrug salts (Iab, Ibb, Icb) in the rat, with historical parent data; type: in vivo, Sprague-Dawley rats; settings: for half-life: after IV prodrug, read-out: t1/2 (hr), IV (converted); for clearance / Vd: prodrug after IV administration; for clearance: read-out: CLtot (mL/min/kg), IV; for Vd: read-out: Vdss (L/kg), IV
Protocol: (§1) All blood samples (0.3 mL) were colleted in microtainers containing K2EDTA (Becton Dickinson, Franklin Lakes, N.J.) and placed on chipped ice. After centrifugation, plasma was separated and stored at −20° C. until analysis. The mono-lysine salt of Iab (Form 3, Lot 1) was used for the pharmacokinetic studies. The dosing solutions of Iab were prepared in either sterile water (for IV administration in dogs and monkeys) or distilled water (for all other dose administration).
Male Sprague-Dawley rats (300-350 g, Hilltop Lab Animals, Inc., Scottsdale, Pa.) with cannulas implanted in the jugular vein were used. The rats were fasted overnight in the PO pharmacokinetic studies. Blood samples were collected from the jugular vein.
In the IV study, Iab was delivered at 1.4 mg/kg (free acid, or 1.1 mg/kg of IVa equivalent) as a bolus over 0.5 min (n=3).
In the PO study, Iab was administered at 7.9 mg/kg (free acid, or 6.3 mg/kg of IVa equivalent) by oral gavage (n=3). The concentration of the dosing solution was 4.0 mg/mL, and the dosing volume was 2 mL/kg.
The pharmacokinetic parameters of Iab and IVa were calculated by Non-Compartmental Analysis using the […]™ software program (version 4.0.2, InnaPhase Co., Philadelphia, Pa.). The Cmax and Tmax values were recorded directly from experimental observations. The AUC0-n and AUCtot values were calculated using the mixed log-linear trapezoidal summations. The total body clearance (Cl), mean residence time (MRT), and the steady state volume of distribution (Vss) were also calculated after intravenous administration. The absolute oral bioavailability (expressed as %) was estimated by taking the ratio of dose-normalized AUC values after oral doses to those after intravenous doses.
as §1, with “Ibb” for “Iab”, “3)” for “3, Lot 1)”
(§2) The Cmax and Tmax values were recorded directly from experimental observations. The AUC0-n and AUCtot values were calculated using the mixed log-linear trapezoidal summations. The total body clearance (Cl), mean residence time (MRT), and the steady state volume of distribution (Vss) were also calculated after intravenous administration. The absolute oral bioavailability (expressed as %) was estimated by taking the ratio of dose-normalized AUC values after oral doses to those after intravenous doses.
In the IV study, Icb was delivered at 1.4 mg/kg (free acid, or 1.1 mg/kg of IVe equivalent) as a bolus over 0.5 min (n=3).
In the PO study, Icb was administered at 6.9 mg/kg (free acid, or 5.6 mg/kg of IVe equivalent) by oral gavage (n=3).
as §2

[2] = IV and PO pharmacokinetic studies of prodrug salts (Iab, Ibb, Icb) in the dog, with historical parent data; type: in vivo, beagle dogs; settings: for half-life: after IV prodrug, read-out: t1/2 (hr), IV (converted); for clearance / Vd: prodrug after IV administration; for clearance: read-out: CLtot (mL/min/kg), IV; for Vd: read-out: Vdss (L/kg), IV
Protocol: The IV and PO studies of Iab were conducted in a crossover fashion in three male beagle dogs (11±1.1 kg, Marshall Farms USA Inc., North Rose, N.Y.). There was a two-week washout period between the IV and PO studies.
(§3) In the IV study, Iab was infused via the cephalic vein at 1.2 mg/kg (free acid, or 0.95 mg/kg of IVa equivalent) over 5 min at a constant rate of 0.1 mL/kg/min. The concentration of the dosing solution was 2.4 mg/mL, and the dosing volume was 0.5 mL/kg. Serial blood samples were collected from the femoral artery before dosing and at 5, 10, 15, 30, 45 min, 1, 2, 4, 6, 8 and 24 hr after dosing.
In the PO study, the dogs were fasted overnight before dosing. Iab was administered by oral gavage at 6.6 mg/kg (free acid, or 5.2 mg/kg of IVa equivalent). The concentration of the dosing solution was 13.2 mg/mL, and the dosing volume was 0.5 mL/kg. Serial blood samples were collected before dosing and at 15, 30, 45 min, 1, 2, 4, 6, 8 and 24 hr after dosing.
The IV and PO studies of Ibb were conducted in male beagle dogs (10±0.78 kg, Marshall Farms USA Inc., North Rose, N.Y.). Three dogs were used in each study. Of the three dogs, two same dogs were used for both IV and PO studies. There was a two-week washout period between the IV and PO studies.
The concentration of the dosing solution was 2.6 mg/mL, and the dosing volume was 0.5 mL/kg. Serial blood samples were collected from the femoral artery before dosing and at 5, 10, 15, 30, 45 min, 1, 2, 4, 6, 8 and 24 hr after dosing.
In the PO study, the dogs were fasted overnight before dosing. […] The concentration of the dosing solution was 7.0 mg/mL, and the dosing volume was 1 mL/kg. Serial blood samples were collected before dosing and at 15, 30, 45 min, 1, 2, 4, 6, 8 and 24 hr after dosing.
The IV and PO studies of Icb were conducted in a crossover fashion in three male beagle dogs (12±2.8 kg, Marshall Farms USA Inc., North Rose, N.Y.). There was a two-week washout period between the IV and PO studies.
as §3, with “Icb” for “Iab”, “1.3” for “1.2”, “1.0” for “0.95”, “IVe” for “IVa”, “2.6” for “2.4”
In the PO study, the dogs were fasted overnight before dosing. […] The concentration of the dosing solution was 12 mg/mL, and the dosing volume was 0.5 mL/kg. Serial blood samples were collected before dosing and at 15, 30, 45 min, 1, 2, 4, 6, 8 and 24 hr after dosing.

[3] = Stability of prodrug in fresh EDTA blood (rat); settings: for Ibb: Ibb in fresh rat EDTA blood, 37° C., n = 2; for conversion of prodrug to parent in blood containing EDTA: rat blood, 60 min (Iab) or 90 min (Ibb, Icb); for Iab / IVa Formed: Rat EDTA blood
[4] = male, Sprague-Dawley, plasma, analyte = label
[5] = male, beagle, plasma, analyte = label

Structure (SMILES): O=C(C(=O)N1CCN(C(=O)c2ccccc2)CC1)c1cn(COP(=O)(O)O)c2c(-n3ccnn3)ncc(F)c12 [Ibb, [3-[(4-benzoylpiperazin-1-yl)(oxo)acetyl]-4-fluoro-7-(1H-1,2,3-triazol-1-yl)-1H-pyrrolo[2,3-c]pyridin-1-yl]methyl dihydrogen phosphate, L-lysine salt (1:1)]
prodrug detected in plasma after oral administration ([1]; LLQ = 5 nM): < 10 nM | half-life [1, 4]: 0.18 h | Cmax ([1]; male, Sprague-Dawley, plasma, po, 6.6 mg/kg, read-out: Cmax): 8 ± 3 nM | Tmax ([1]; male, Sprague-Dawley, plasma, po, 6.6 mg/kg, read-out: Tmax): 15 min | clearance ([1]; male, Sprague-Dawley, plasma): 19 mL/min/kg | Vd ([1]; male, Sprague-Dawley, plasma): 0.1 L/kg | T1/2 ([2]; IV Ibb […] free acid (1.0 of IVb eqv.), mean ± SD, n = 3): 49.8 ± 34.8 min | prodrug detected in plasma after oral administration ([2]; LLQ = 5 nM): 0.034 µM | half-life [2, 5]: 0.83 h | AUC ([2]; male, beagle, plasma, po, 7 mg/kg, read-out: AUCtot): 0.059 µM·h | Cmax ([2]; male, beagle, plasma, po, 7 mg/kg, read-out: Cmax): 34 ± 18 nM | Tmax ([2]; male, beagle, plasma, po, 7 mg/kg, read-out: Tmax): 19.8 ± 8.4 min | clearance ([2]; male, beagle, plasma): 27 mL/min/kg | Vd ([2]; male, beagle, plasma): 0.35 L/kg | Ibb ([3]; 0 min): 15 µM | Ibb ([3]; 15 min): 15 µM | Ibb ([3]; 30 min): 18 µM | Ibb ([3]; 45 min): 15 µM | Ibb ([3]; 60 min): 16 µM | Ibb ([3]; 90 min): 17 µM | conversion of prodrug to parent in blood containing EDTA ([3]; 37°C): < 2%

AUC ([1]; male, Sprague-Dawley, plasma, after IV prodrug (~1 mg/kg parent equivalent), analyte = label, read-out: AUCtot (μM·hr), IV): 3.3 ± 1 µM·h | half-life [1, 4]: 0.16 h | clearance ([1]; male, Sprague-Dawley, plasma): 14 mL/min/kg | Vd ([1]; male, Sprague-Dawley, plasma): 0.12 L/kg | AUC ([2]; male, beagle, plasma, after IV prodrug (~1 mg/kg parent equivalent), analyte = label, read-out: AUCtot (μM · hr), IV): 0.56 ± 0.12 µM·h | half-life [2, 5]: 0.15 h | clearance ([2]; male, beagle, plasma): 70 mL/min/kg | Vd ([2]; male, beagle, plasma): 0.3 L/kg | Iab / IVa Formed ([3]; 37°C, 0 min): 8.0 µM | Iab / IVa Formed ([3]; 20 min): 8.8 µM | Iab / IVa Formed ([3]; 40 min): 10 µM | Iab / IVa Formed ([3]; 60 min): 10 µM | conversion of prodrug to parent in blood containing EDTA ([3]; 37°C): < 2% and 1.2%
Structure (SMILES): COc1cnc(OC)c2c1c(C(=O)C(=O)N1CCN(C(=O)c3ccccc3)CC1)cn2COP(=O)(O)O [Iab, {3-[(4-benzoylpiperazin-1-yl)(oxo)acetyl]-4,7-dimethoxy-1H-pyrrolo[2,3-c]pyridin-1-yl}methyl dihydrogen phosphate, L-lysine salt (1:1)]
